The record followed here is patent EP0530446A2, “Use of sulfur containing carboxylic acids for combatting pathophysiologic excitatory disorders and related diseases as well as allergic diseases and their preparation as medicament” (ASTA Medica Aktiengesellschaft, priority 1991, dated 1993).

Assay [1] has as its system PAF (Platelet-activating-Factor)-Acether-Ödem. Put plainly: PAF-acether paw oedema in the rat. The assay is classed as in vivo, Ratte. The conditions noted are these: 0.5 h before PAF-acether 2 ug/animal subplantar, oedema read 1 h later. As for the experimental part: Die antiallergische Wirkung wird unter anderem durch Untersuchungen im PAF (Platelet-activating-Factor)-Acether-Ödem an der Ratte belegt.
Prinzip der Methode ist es, durch subplantare Injektion von PAF-Acether 2 ug/Tier ein lokal begrenztes Ödem beziehungsweise eine Entzündung an der Rattenpfote zu erzeugen. Die Untersuchungen werden in Anlehnung an die Methode nach SWINGLE und REITER (Agents and actions, 18, 358-365, (1986)) durchgeführt. Die Tiere erhalten die Prüfsubstanzen 0,5 Stunden vor der Auslösung des Ödems verabreicht. 1 Stunde danach wird das Ödem plethysmographisch ermittelt.

A further assay concerns EEG der Ratte. As to the kind of experiment: Tele-Stereo-EEG in the rat: prevention of EEG changes caused by hypoglycaemic or ischaemic insult. The class given is in vivo. The conditions noted are these: 30 mg/kg i.p., compared with pre-dose value (Vorwert). As for the experimental part: Die erfindungsgemäßen Verbindungen der Formel zeigen beispielsweise im Modell zum Nachweis der Prevention der durch hypoglykämischen beziehungsweise ischämischen Insult verursachte Veränderungen im EEG der Ratte (im Vergleich zum Vorwert) bei der parenteralen Applikation (i.p. = intraperitoneal) bei 30 mg/kg (i.p.) des Racemats der alpha-Liponsäure 118 %, bei 30 mg/kg i.p. des (+)-Enantiomers 157 % und bei 30 mg/kg i.p. des (-)-Enantiomers 85 % Änderung der Leistungsdichte des beta-2-Bandes im frontalen Kortex.
Diese Untersuchung erfolgte analog der Methode Dimpfel et al, Neuropsychobiology 16: 163 - 168, (1986) mit der Änderung, daß die Ableitung vom Hippokampus anstelle des Thalamus erfolgt. (Radioelectroencephalography (Tele-Stereo-EEG) in the rat as a pharmacological model to differentiate the central action of flupirtine from that of opiates, diazepam and phenobarbital)
Männliche Fischer-344 Ratten wurden im Alter von 4 bis 5 Monaten 4 bipolar konzentrische Elektroden zusammen mit einem Mikrostecker auf einer gemeinsamen Basisplatte implantiert. Der Stecker diente der Aufnahme eines 4-Kanal-Senders zur telemetrischen Übertragung der aus frontalem Kortex, Hippokampus, Striatum und Formatio Reticularis abgeleiteten Feldpotentiale. Die Signale wurden auf einem Pro Science Computer System in Echtzeit einer Fast Fourier Transformation unterworfen und die Leistungsdichtespektren jeweils über 15 Minuten gemittelt. Die Unterteilung der Spektren in 6 verschiedene Frequenzbereiche erlaubte die Erfassung pharmakonspezifischer Veränderungen in Bezug auf die jeweils vor der Applikation gemessenen Vorwerte innerhalb dieser Frequenzbänder.
Zum Applikationsprotokoll der Substanzen: Die Substanzen wurden intraperitoneal 45 Minuten nach Beginn der Messungen (Vorwert) injiziert. Fünf Minuten später wurden die Messungen wieder gestartet, mindestens über die nächsten 2 Stunden kontinuierlich analysiert und in 15-minütigen Perioden zusammengefaßt. Die Testsubstanzen (zum Beispiel Thioctsäure) wurden in einer Dosierung von 30 mg/kg appliziert. […]

In assay [2] the test system is Hippocampusschnitt-Präparat von ethanolabhängigen Ratten. Put plainly: Hippocampal slice preparation of ethanol-dependent rats after 16 h withdrawal, excitability at decreasing Mg++. As to conditions: slices 16 h after ethanol withdrawal (5 g/kg/day for 2 weeks), tested at 246 pg/ml. The source says: Die bei Ratten 16 Stunden nach dem Absetzen von Ethanol (5 g/kg/Tag Ethanol über einen Zeitraum von 2 Wochen) aus dem Hippocampus entnommenen Präparate wurden abnehmenden Magnesiumkonzentrationen im Superfusionsmedium ausgesetzt, um Plasizitätsveränderungen bei der Erregbarkeit der Pyramidenzellen nachweisen zu können. Die elektrisch ausgelösten und spontanen Entladungen wurden in Abwesenheit und Gegenwart der S(-)-Form der a-Liponsäure beobachtet.
Zwei Gruppen ausgewachsener, männlicher CD-Ratten (Charles River Wiga) erhielten handelsübliches Rattenfutter ad libitum. Das Trinkwasser wurde durch den Zusatz von 1 g Glukose/Liter gesüßt. Eine der Gruppen erhielt Wasser, das 5 % Ethanol enthielt. Die von den Tieren aufgenommene Wassermenge wurde täglich bestimmt und betrug in beiden Gruppen durchschnittlich 40 ml. Folglich nahm die Ethanolgruppe während des zweiwöchigen Versuches - ausgehend von ihrem durchschnittlichen Gewicht - innerhalb von 24 Stunden etwa 5 g/kg Ethanol auf.
Den Tieren wurde das modifizierte Trinkwasser über einen Zeitraum von 2 Wochen verabreicht. Außerdem wurde das Körpergewicht täglich ermittelt, wobei zwischen den beiden Gruppen keine Differenz beobachtet werden konnte. 16 Stunden vor Beginn der Messung der Erregbarkeit ex vivo erhielten die mit dem Ethanol behandelten Tiere ebenfalls glukosehaltiges Trinkwasser, um den Entzug einzuleiten. […]

Assay [3] deals with Hippocampusschnitt-Präparat von morphiumabhängigen Ratten. As to the kind of experiment: Hippocampal slice preparation of morphine-dependent rats after 16 h withdrawal, excitability at decreasing Mg++. The conditions noted are these: slices 16 h after morphine withdrawal (2 mg/kg s.c. twice daily for 2 weeks), tested at 100 µM. The method, then: Die bei Ratten 16 Stunden nach dem Entzug von Morphium (2 mg/kg Morphium subcutan, 2 x täglich über 2 Wochen lang) aus dem Hippocampus entnommenen Präparate wurden abnehmenden Magnesiumkonzentrationen im Superfusionsmedium ausgesetzt, um Platizitätsveränderungen bei der Erregbarkeit der Pyramidenzellen nachweisen zu können. Die elektrisch ausgelösten und spontanen Entladungen wurden in Abwesenheit und Gegenwart der S(-)-Form der a-Liponsäure beobachtet. […] Hierdurch ergibt sich eine Anwendung/Verwendung von a-Liponsäure bei Entziehungserscheinungen bei Drogenabhängigkeit.
Zwei Gruppen ausewachsener, männlicher CD-Ratten (Charles River Wiga) erhielten handelübliches Rattenfutter ad libitum. In den beiden Versuchwochen erhielten die Tiere der ersten Gruppe zweimal täglich 2 mg/kg Morphium. Der Kontrollgruppe wurde Kochsalzlösung injiziert. Das Körpergewicht wurde täglich registriert. 16 Stunden vor Beginn der Messung der Erregbarkeit ex vivo erhielten die mit Morphium behandelten Tiere keine Injektion mehr, um den Entzug einzleiten.
Die Tiere wurden in leichter Narkose ausgeblutet, das Gehirn wurde in toto entnommen und die Formatio hippocampi unter stereomikroskopischer Kontrolle isoliert. […]

As to `O=C(O)CCCCC1CCSS1` (racemic) [α-Liponsäure, reference compound], the Ödemhemmung in % is 14% in assay [1] (25 mg/kg intraperitoneal) and 16% in assay [1] (50 mg/kg intraperitoneal). Also, the “Änderung der Leistungsdichte des beta-2-Bandes im frontalen Kortex” value in the assay on EEG der Ratte is 118%.

Consider `O=C(O)CCCC[C@@H]1CCSS1` [(+)-Enantiomers, R(+)-a-Liponsäure], for which the “Änderung der Leistungsdichte des beta-2-Bandes im frontalen Kortex” value with EEG der Ratte amounted to 157%.

`O=C(O)CCCC[C@H]1CCSS1` [(-)-Enantiomers, S(-)-a-Liponsäure]: the “ausgelöste Entladungen” value in assay [2] is “vollständige Dämpfung”. Also, in assay [3] (decreasing Mg++), the “spontane Entladungen” value is reported as “abzuschwächen”. In addition, the “Spitzenamplituden der Population” value in assay [3] (lower Mg++ concentrations) was “auf Normalwerte zu senken”. The “Änderung der Leistungsdichte des beta-2-Bandes im frontalen Kortex” value in the assay with EEG der Ratte turned out to be 85%.

Consider `O=C(O)CCCCC(S)CCS` (stereo not shown) [Dihydroliponsäure, 6,8-Dimercapto-octansäure], for which the Ödemhemmung in % is on record as 63% in assay [1] (50 mg/kg intraperitoneal) and 73% in assay [1] (200 mg/kg intraperitoneal).
